Data taken from ChEMBL document CHEMBL4422689, “Discovery of 4'-OH-flurbiprofen Mannich base derivatives as potential Alzheimer's disease treatment with multiple inhibitory activities” (Bioorg Med Chem, 2019).
The source made the active and inactive calls. The calls are words filed in the database; no cut-off is given here.

Assays:
[1] = molecular target: Amyloid-beta precursor protein (Homo sapiens) (UniProt P05067); experiment: Inhibition of HFIP-pretreated human amyloid beta (1 to 42) self-induced aggregation at 25 uM measured after 24 hrs by thioflavin-T fluorescence assay relative to control
Sequence of Amyloid-beta precursor protein (Homo sapiens) (P05067 whole entry): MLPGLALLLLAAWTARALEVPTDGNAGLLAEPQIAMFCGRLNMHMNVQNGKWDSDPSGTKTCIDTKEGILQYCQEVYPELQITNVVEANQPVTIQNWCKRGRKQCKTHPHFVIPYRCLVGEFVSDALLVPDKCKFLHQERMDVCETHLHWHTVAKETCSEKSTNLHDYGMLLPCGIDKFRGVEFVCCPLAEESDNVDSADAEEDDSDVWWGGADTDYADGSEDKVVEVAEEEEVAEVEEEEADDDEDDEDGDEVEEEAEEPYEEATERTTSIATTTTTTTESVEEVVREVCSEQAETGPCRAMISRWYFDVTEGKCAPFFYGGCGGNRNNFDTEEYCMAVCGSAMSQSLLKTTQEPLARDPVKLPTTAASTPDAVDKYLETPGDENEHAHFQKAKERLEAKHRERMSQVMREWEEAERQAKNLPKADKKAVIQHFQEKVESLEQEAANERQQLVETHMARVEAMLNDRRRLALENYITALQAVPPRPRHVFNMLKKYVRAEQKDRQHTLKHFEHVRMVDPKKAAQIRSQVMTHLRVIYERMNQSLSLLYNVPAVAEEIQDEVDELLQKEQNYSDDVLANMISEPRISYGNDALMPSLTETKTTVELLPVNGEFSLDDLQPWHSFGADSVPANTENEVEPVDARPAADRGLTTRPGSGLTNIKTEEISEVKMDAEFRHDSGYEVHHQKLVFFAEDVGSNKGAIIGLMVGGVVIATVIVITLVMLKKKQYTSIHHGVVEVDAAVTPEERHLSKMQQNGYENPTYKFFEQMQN

[2] = molecular target: Acetylcholinesterase (Electrophorus electricus) (UniProt O42275); experiment: Inhibition of Electrophorus electricus AChE at 50 uM using acetylthiocholine iodide as substrate measured after 15 mins by Ellman's method relative to control
Sequence of Acetylcholinesterase (Electrophorus electricus) (O42275 24-633 limits assumed): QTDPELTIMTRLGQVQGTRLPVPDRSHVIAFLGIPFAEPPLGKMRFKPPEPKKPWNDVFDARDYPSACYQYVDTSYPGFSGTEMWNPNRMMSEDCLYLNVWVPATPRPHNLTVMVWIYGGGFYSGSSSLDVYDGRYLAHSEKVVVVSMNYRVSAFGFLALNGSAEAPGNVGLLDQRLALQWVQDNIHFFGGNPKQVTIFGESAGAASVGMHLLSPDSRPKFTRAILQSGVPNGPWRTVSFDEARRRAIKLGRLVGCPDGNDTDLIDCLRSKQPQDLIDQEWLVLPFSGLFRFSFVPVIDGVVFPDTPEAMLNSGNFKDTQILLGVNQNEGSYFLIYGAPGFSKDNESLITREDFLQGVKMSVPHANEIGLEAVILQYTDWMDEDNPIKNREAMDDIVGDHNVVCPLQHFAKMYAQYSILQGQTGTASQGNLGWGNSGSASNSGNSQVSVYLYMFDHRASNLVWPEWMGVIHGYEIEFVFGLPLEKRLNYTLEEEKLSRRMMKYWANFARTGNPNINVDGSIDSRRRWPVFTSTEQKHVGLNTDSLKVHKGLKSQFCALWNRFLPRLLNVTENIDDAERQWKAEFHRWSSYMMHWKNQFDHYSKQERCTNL

[3] = Inhibition of Cu2+-induced human amyloid beta (1 to 42) aggregation at 25 uM after 24 hrs by thioflavin T-based fluorometric assay relative to control
[4] = Antioxidant activity assessed as trolox equivalents of AAPH radical scavenging activity at 1 to 10 uM preincubated for 15 mins followed by AAPH addition measured every min for 90 mins by ORAC-FL assay; format: functional
[5] = molecular target: Butyrylcholinesterase (BuChE) (Rattus norvegicus, UniProt Q9JKC1); experiment: (§1) Inhibition of rat serum BuChE at 25 uM using butyrylthiocholine iodide as substrate after 15 mins by Ellman's method relative to control; conditions: rat serum, probe butyrylthiocholine iodide
Sequence of Butyrylcholinesterase (BuChE) (Q9JKC1 whole entry): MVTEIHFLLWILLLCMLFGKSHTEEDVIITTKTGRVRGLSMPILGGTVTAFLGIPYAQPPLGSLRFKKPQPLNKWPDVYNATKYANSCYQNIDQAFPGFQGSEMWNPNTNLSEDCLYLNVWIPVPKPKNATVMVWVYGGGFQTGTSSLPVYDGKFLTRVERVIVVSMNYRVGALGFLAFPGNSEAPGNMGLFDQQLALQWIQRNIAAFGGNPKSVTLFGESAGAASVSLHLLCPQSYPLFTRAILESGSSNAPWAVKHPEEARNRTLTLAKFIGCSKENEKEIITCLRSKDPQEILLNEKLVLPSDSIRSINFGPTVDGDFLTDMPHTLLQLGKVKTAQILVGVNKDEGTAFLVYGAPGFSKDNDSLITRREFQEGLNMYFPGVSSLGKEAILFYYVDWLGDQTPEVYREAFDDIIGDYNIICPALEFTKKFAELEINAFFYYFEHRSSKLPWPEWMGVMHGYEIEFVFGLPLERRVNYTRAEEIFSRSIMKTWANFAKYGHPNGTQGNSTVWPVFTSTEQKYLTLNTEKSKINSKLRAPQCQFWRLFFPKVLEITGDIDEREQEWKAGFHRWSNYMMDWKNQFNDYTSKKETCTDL

BV-2 [6] = experiment: Inhibition of LPS-induced TNFalpha production in mouse BV2 cells at 2.5 uM pretreated for 30 mins followed by LPS-stimulation and measured after 24 hrs by ELISA relative to control; format: functional
BV-2 [7] = experiment: Inhibition of LPS-induced TNFalpha production in mouse BV2 cells at 10 uM pretreated for 30 mins followed by LPS-stimulation and measured after 24 hrs by ELISA relative to control; format: functional
Butyrylcholinesterase = Butyrylcholinesterase (Rattus norvegicus, UniProt Q9JKC1); experiment: as §1; conditions: 0.25 h, 25 µM
Sequence of Butyrylcholinesterase (Q9JKC1 whole entry): as above

BV-2 [8] = experiment: Inhibition of LPS-induced nitric oxide production in mouse BV2 cells at 10 uM pretreated for 30 mins followed by LPS-stimulation and measured after 24 hrs by Griess assay relative to control; format: functional
[9] = Permeability of the compound in pH 7.4 PBS/EtOH at 100 ug/ml after 18 hrs by PAMPA-BBB assay
BV-2 [10] = experiment: Inhibition of LPS-induced nitric oxide production in mouse BV2 cells at 2.5 uM pretreated for 30 mins followed by LPS-stimulation and measured after 24 hrs by Griess assay relative to control; format: functional
BV-2 [11] = experiment: Cytotoxicity against LPS-stimulated mouse BV2 cells assessed as effect on cell viability at 0.5 to 10 uM pretreated for 30 mins followed by LPS-stimulation and measured after 24 hrs by MTT assay; format: cell-based; conditions: bv-2, 24 h
BV-2 [12] = experiment: Inhibition of LPS-induced TNFalpha production in mouse BV2 cells at 0.5 uM pretreated for 30 mins followed by LPS-stimulation and measured after 24 hrs by ELISA relative to control; format: functional
BV-2 [13] = experiment: Cytotoxicity against mouse BV2 cells assessed as effect on cell viability up to 10 uM after 24 hrs by MTT assay; format: cell-based; conditions: bv-2, 24 h
BV-2 [14] = experiment: Cytotoxicity against LPS-stimulated mouse BV2 cells assessed as effect on cell viability at 2.5 to 10 uM pretreated for 30 mins followed by LPS-stimulation and measured after 24 hrs by MTT assay; format: cell-based; conditions: bv-2, 24 h
BV-2 [15] = experiment: Inhibition of LPS-induced nitric oxide production in mouse BV2 cells at 0.5 uM pretreated for 30 mins followed by LPS-stimulation and measured after 24 hrs by Griess assay relative to control; format: functional
[16] = Metal chelating activity of the compound assessed as formation of Fe2+-compound complex by measuring absorbance at 37.5 uM after 30 mins by UV-vis absorption spectra analysis
[17] = Metal chelating activity of the compound assessed as formation of Al3+-compound complex by measuring red shift in maximum absorption at 37.5 uM after 30 mins by UV-vis absorption spectra analysis
[18] = Metal chelating activity of the compound assessed as formation of Cu2+-compound complex by measuring red shift in maximum absorption at 37.5 uM after 30 mins by UV-vis absorption spectra analysis
[19] = Metal chelating activity of the compound assessed as formation of Zn2+-compound complex at 37.5 uM after 30 mins by UV-vis absorption spectra analysis
[20] = Metal chelating activity of the compound assessed as formation of Fe2+-compound complex by measuring red shift in maximum absorption at 37.5 uM after 30 mins by UV-vis absorption spectra analysis
[21] = Metal chelating activity of the compound assessed as formation of Cu2+-compound complex by measuring absorbance at 37.5 uM after 30 mins by UV-vis absorption spectra analysis

Compound | inhibition [1] [%] | inhibition [2] [%] | inhibition [3] [%] | Activity [4] [µMequiv/µM] | inhibition at 0.25 h, 25 µM [5] [%] | also measured
COC(=O)C(C)c1ccc(-c2ccc(O)c(CN3CCN(Cc4ccccc4)CC3)c2)c(F)c1 (stereo not drawn) | 28.4 | 38.3 | 39.2 | 1.19 | 2.86 | 
COC(=O)C(C)c1ccc(-c2ccc(O)c(CN3CCOCC3)c2)c(F)c1 (stereo not drawn) | 12.9 | 14.9 | 22.1 | 2.14 | 1.19 | 
COc1cc(/C=C/C(=O)CC(=O)/C=C/c2ccc(O)c(OC)c2)ccc1O |  |  | 67.2 |  |  | 
COC(=O)C(C)c1ccc(-c2ccc(O)c(CN3CCCC3)c2)c(F)c1 (stereo not drawn) | 15.8 | 17 | 28.5 | 2.13 | 1.38 | 
CCN(Cc1cc(-c2ccc(C(C)C(=O)OC)cc2F)ccc1O)Cc1ccccc1N(C)C (stereo not drawn) | 60.6 | 45.5 | 42.1 | 1.57 | 16.3 | 
COC(=O)C(C)c1ccc(-c2ccc(O)c(CN3CCCCC3)c2)c(F)c1 (stereo not drawn) | 15.5 | 22.9 | 11.2 | 1.51 | 1.95 | 
CCN(Cc1cc(-c2ccc(C(C)C(=O)OC)cc2F)ccc1O)Cc1ccccc1OC (stereo not drawn) | 60.5 | 28 | 42.5 | 2.6 | 5.12 | 
CCN(Cc1ccccc1)Cc1cc(-c2ccc(C(C)C(=O)OC)cc2F)ccc1O (stereo not drawn) | 36.8 | 36.4 | 34.9 | 2.24 | 4.61 | 
CCN(CC)Cc1cc(-c2ccc(C(C)C(=O)OC)cc2F)ccc1O (stereo not drawn) | 8.3 | 14.3 | 29.7 | 1.81 | 1.58 | 
COC(=O)C(C)c1ccc(-c2ccc(O)c(CN(C)Cc3ccccc3)c2)c(F)c1 (stereo not drawn) | 36.7 | 35.1 | 31.2 | 1.59 | 1.28 | 
CC(C(=O)O)c1ccc(-c2ccccc2)c(F)c1 (stereo not drawn) [FLURBIPROFEN] | 12.8 | 15.6 | 7.56 | 0.18 |  | inhibition at 2.5 µM (BV-2 [6]): 9.6%; inhibition at 10 µM (BV-2 [7]): 30.3%; inhibition (INH) (Butyrylcholinesterase): Not Active; inhibition at 10 µM (BV-2 [8]): 23%; Papp at 18 h, 100 ug/ml [9]: 1.56 ×10⁻⁶ cm/s; inhibition at 2.5 µM (BV-2 [10]): 11.8%
CCN1CCN(Cc2cc(-c3ccc(C(C)C(=O)OC)cc3F)ccc2O)CC1 (stereo not drawn) | 28.9 | 7.13 | 33.9 | 2.16 | 4.28 | 
COC(=O)C(C)c1ccc(-c2ccc(O)c(CN(C)Cc3ccccc3OC)c2)c(F)c1 (stereo not drawn) | 60.6 | 28 | 38.8 | 2.12 | 3.06 | 
COc1cc2c(cc1OC)C(=O)C(CC1CCN(Cc3ccccc3)CC1)C2 (stereo not drawn) |  |  | < 5 |  |  | 
COC(=O)C(C)c1ccc(-c2ccc(O)c(CN3CCN(C)CC3)c2)c(F)c1 (stereo not drawn) | 34.1 | 13.3 | 16.2 | 2.12 | 1.12 | 
COC(=O)C(C)c1ccc(-c2ccc(O)c(CN(C)C)c2)c(F)c1 (stereo not drawn) | 42.7 | 18.6 | 38.1 | 2.07 | 2.56 | inhibition at 2.5 µM (BV-2 [6]): 51.2%; Activity (BV-2 [11]): Non-Toxic; inhibition at 0.5 µM (BV-2 [12]): 21.8%; inhibition at 10 µM (BV-2 [7]): 72.9%; Activity (BV-2 [13]): Non-Toxic; Activity (BV-2 [14]): Non-Toxic; inhibition at 0.5 µM (BV-2 [15]): 21.7%; inhibition at 10 µM (BV-2 [8]): 61.7%; Papp at 18 h, 100 ug/ml [9]: 6.78 ×10⁻⁶ cm/s; inhibition at 2.5 µM (BV-2 [10]): 39.2%
CCN(Cc1ccc(N(C)C)cc1)Cc1cc(-c2ccc(C(C)C(=O)OC)cc2F)ccc1O (stereo not drawn) | 65 | 34.1 | 38 | 4.09 | 2.21 | Activity [16]: 0.1; inhibition at 2.5 µM (BV-2 [6]): 55.3%; Activity [17]: 278 nm; Activity [18]: 270 nm; Activity (BV-2 [11]): Non-Toxic; inhibition at 0.5 µM (BV-2 [12]): 25.3%; inhibition at 10 µM (BV-2 [7]): 68.2%; Activity (BV-2 [13]): Non-Toxic; Activity [19]: inactive; Activity [20]: 270 nm; Activity (BV-2 [14]): Non-Toxic; inhibition at 0.5 µM (BV-2 [15]): 28.3%; inhibition at 10 µM (BV-2 [8]): 65%; Activity [21]: 0.1; Papp at 18 h, 100 ug/ml [9]: 8.54 ×10⁻⁶ cm/s; inhibition at 2.5 µM (BV-2 [10]): 32.5%
